{"source": "patent US7491819B1", "about": "(priority 2004, dated 2009)", "data": [{"target": "T1, HIV-integrase (Human immunodeficiency virus type 1 group M subtype B, UniProt P12497)", "T1 construct": "Recombinant integrase (0.26 ng) was incubated with the beads", "assay": "HIV-Integrase Inhibition Activity (SPA bead strand-transfer assay)", "format": "biochemical", "settings": "Table 1; read-out: Activity (HIV-integrase inhibition, IC50 class)", "summary_of_the_method": "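Strand-transfer read-out: CPM from P33-labelled target DNA (0.1 fmol) joined to bead-bound biotin substrate DNA (5 pmole), with EDTA stop at 10 mM final. Integrase (0.26 ng) prebound to streptavidin SPA beads 90 min, 37° C, and washed before adding inhibitor.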", "units": {"IC50": "nM"}, "values": [{"smiles": "CC1(C)OCCn2c1nc(C(=O)NCc1ccc(F)cc1O)c(O)c2=O", "note": "[Example 95, Pyrimido[2,1-c][1,4]oxazine-2-carboxamide, N-[(4-fluoro-2-hydroxyphenyl)methyl]-4,6,7,9-tetrahydro-3-hydroxy-9,9-dimethyl-4-oxo-]", "IC50": "2 to 100"}, {"smiles": "CNC(=O)COc1cc(F)ccc1CNC(=O)c1nc2n(c(=O)c1O)CCOC2(C)C", "note": "[Example 97, Pyrimido[2,1-c][1,4]oxazine-2-carboxamide, N-[[4-fluoro-2-[2-(methylamino)-2-oxoethoxy]phenyl]methyl]-4,6,7,9-tetrahydro-3-hydroxy-9,9-dimethyl-4-oxo-]", "IC50": "2 to 100"}, {"smiles": "CN(C)C(=O)COc1cc(F)ccc1CNC(=O)c1nc2n(c(=O)c1O)CCOC2(C)C", "note": "[Example 98, Pyrimido[2,1-c][1,4]oxazine-2-carboxamide, N-[[2-[2-(dimethylamino)-2-oxoethoxy]-4-fluorophenyl]methyl]-4,6,7,9-tetrahydro-3-hydroxy-9,9-dimethyl-4-oxo-]", "IC50": "2 to 100"}, {"smiles": "CSc1cc(F)ccc1CNC(=O)c1nc2n(c(=O)c1O)CCOC2(C)C", "note": "[Example 100, Pyrimido[2,1-c][1,4]oxazine-2-carboxamide, N-[[4-fluoro-2-(methylthio)phenyl]methyl]-4,6,7,9-tetrahydro-3-hydroxy-9,9-dimethyl-4-oxo-]", "IC50": "2 to 100"}, {"smiles": "CC1(C)OCCn2c1nc(C(=O)NCc1ccc(F)cc1S(C)(=O)=O)c(O)c2=O", "note": "[Example 101, Pyrimido[2,1-c][1,4]oxazine-2-carboxamide, N-[[4-fluoro-2-(methylsulfonyl)phenyl]methyl]-4,6,7,9-tetrahydro-3-hydroxy-9,9-dimethyl-4-oxo-]", "IC50": "2 to 100"}, {"smiles": "C[S+]([O-])c1cc(F)ccc1CNC(=O)c1nc2n(c(=O)c1O)CCOC2(C)C", "note": "(centres unmarked) [Example 102, Pyrimido[2,1-c][1,4]oxazine-2-carboxamide, N-[[4-fluoro-2-(methylsulfinyl)phenyl]methyl]-4,6,7,9-tetrahydro-3-hydroxy-9,9-dimethyl-4-oxo]", "IC50": "2 to 100"}, {"smiles": "CS(=N)c1cc(F)ccc1CNC(=O)c1nc2n(c(=O)c1O)CCOC2(C)C", "note": "(centres unmarked) [Example 103, Pyrimido[2,1-c][1,4]oxazine-2-carboxamide, N-[[4-fluoro-2-(S-methylsulfinimidoyl)phenyl]methyl]-4,6,7,9-tetrahydro-3-hydroxy-9,9-dimethyl-4-oxo-]", "IC50": "2 to 100"}, {"smiles": "CC1(C)OCCn2c1nc(C(=O)NCc1cccc(C3(C(F)(F)F)N=N3)c1)c(O)c2=O", "note": "[Example 105, Pyrimido[2,1-c][1,4]oxazine-2-carboxamide, 4,6,7,9-tetrahydro-3-hydroxy-9,9-dimethyl-4-oxo-N-[[3-[3-(trifluoromethyl)-3H-diazirin-3-yl]-phenyl]methyl]-]", "IC50": "2 to 100"}, {"smiles": "Cn1nnc(-c2cc(F)ccc2CNC(=O)c2nc3n(c(=O)c2O)CCOC3(C)C)n1", "note": "[Example 106, Pyrimido[2,1-c][1,4]oxazine-2-carboxamide, N-[[4-fluoro-2-(2-methyl-2H-tetrazol-5-yl)phenyl]methyl]-4,6,7,9-tetrahydro-3-hydroxy-9,9-dimethyl-4-oxo-]", "IC50": "2 to 100"}, {"smiles": "Cn1nnnc1-c1cc(F)ccc1CNC(=O)c1nc2n(c(=O)c1O)CCOC2(C)C", "note": "[Example 107, Pyrimido[2,1-c][1,4]oxazine-2-carboxamide, N-[[4-fluoro-2-(1-methyl-1H-tetrazol-5-yl)phenyl]methyl]-4,6,7,9-tetrahydro-3-hydroxy-9,9-dimethyl-4-oxo-]", "IC50": "2 to 100"}, {"smiles": "CN(C)S(=O)(=O)c1cc(F)ccc1CNC(=O)c1nc2n(c(=O)c1O)CCOC2(C)C", "note": "[Example 108, Pyrimido[2,1-c][1,4]oxazine-2-carboxamide, N-[[2-[(dimethylamino)sulfonyl]-4-fluorophenyl]methyl]-4,6,7,9-tetrahydro-3-hydroxy-9,9-dimethyl-4-oxo-]", "IC50": "2 to 100"}, {"smiles": "CNS(=O)(=O)c1cc(F)ccc1CNC(=O)c1nc2n(c(=O)c1O)CCOC2(C)C", "note": "[Example 109, Pyrimido[2,1-c][1,4]oxazine-2-carboxamide, N-[[4-fluoro-2-[(methylamino)sulfonyl]phenyl]methyl]-4,6,7,9-tetrahydro-3-hydroxy-9,9-dimethyl-4-oxo-]", "IC50": "2 to 100"}, {"smiles": "CC1(C)OCCn2c1nc(C(=O)NCc1ccc(F)cc1S(N)(=O)=O)c(O)c2=O", "note": "[Example 110, Pyrimido[2,1-c][1,4]oxazine-2-carboxamide, N-[[2-(aminosulfonyl)-4-fluorophenyl]methyl]-4,6,7,9-tetrahydro-3-hydroxy-9,9-dimethyl-4-oxo-]", "IC50": "2 to 100"}, {"smiles": "CC1(C)OCCn2c1nc(C(=O)NCc1ccc(F)cc1S(=O)(=O)N1CCC1)c(O)c2=O", "note": "[Example 111, Pyrimido[2,1-c][1,4]oxazine-2-carboxamide, N-[[2-(1-azetidinylsulfonyl)-4-fluorophenyl]methyl]-4,6,7,9-tetrahydro-3-hydroxy-9,9-dimethyl-4-oxo-]", "IC50": "2 to 100"}, {"smiles": "CSc1ccccc1CNC(=O)c1nc2n(c(=O)c1O)CCOC2(C)C", "note": "[Example 112, Pyrimido[2,1-c][1,4]oxazine-2-carboxamide, 4,6,7,9-tetrahydro-3-hydroxy-9,9-dimethyl-N-[[2-(methylthio)phenyl]methyl]-4-oxo-]", "IC50": "2 to 100"}, {"smiles": "C[S+]([O-])c1ccccc1CNC(=O)c1nc2n(c(=O)c1O)CCOC2(C)C", "note": "(centres unmarked) [Example 113, Pyrimido[2,1-c][1,4]oxazine-2-carboxamide, 4,6,7,9-tetrahydro-3-hydroxy-9,9-dimethyl-N-[[2-(methylsulfinyl)phenyl]methyl]-4-oxo-]", "IC50": "2 to 100"}, {"smiles": "CC1(C)OCCn2c1nc(C(=O)NCc1ccccc1S(C)(=O)=O)c(O)c2=O", "note": "[Example 114, Pyrimido[2,1-c][1,4]oxazine-2-carboxamide, 4,6,7,9-tetrahydro-3-hydroxy-9,9-dimethyl-N-[[2-(methylsulfonyl)phenyl]methyl]-4-oxo-]", "IC50": "2 to 100"}, {"smiles": "CC1(C)OCCn2c1nc(C(=O)NCc1ccc(F)cc1Nc1nccs1)c(O)c2=O", "note": "[Example 115, Pyrimido[2,1-c][1,4]oxazine-2-carboxamide, N-[[4-fluoro-2-(2-thiazolylamino)phenyl]methyl]-4,6,7,9-tetrahydro-3-hydroxy-9,9-dimethyl-4-oxo-]", "IC50": "2 to 100"}, {"smiles": "Cc1nnc(Nc2cc(F)ccc2CNC(=O)c2nc3n(c(=O)c2O)CCOC3(C)C)s1", "note": "[Example 116, Pyrimido[2,1-c][1,4]oxazine-2-carboxamide, N-[[4-fluoro-2-[(5-methyl-1,3,4-thiadiazol-2-yl)amino]phenyl]methyl]-4,6,7,9-tetrahydro-3-hydroxy-9,9-dimethyl-4-oxo-]", "IC50": "2 to 100"}, {"smiles": "CC1(C)OCCCn2c1nc(C(=O)NCc1ccc(F)cc1-n1cncn1)c(O)c2=O", "note": "[Example 117, 6H-Pyrimido[2,1-c][1,4]oxazepine-2-carboxamide, N-[[4-fluoro-2-(1H-1,2,4-triazol-1-yl)phenyl]methyl]-4,7,8,10-tetrahydro-3-hydroxy-10,10-dimethyl-4-oxo-]", "IC50": "2 to 100"}, {"smiles": "CNC(=O)c1cc(F)ccc1CNC(=O)c1nc2n(c(=O)c1O)CCCOC2(C)C", "note": "[Example 118, 6H-Pyrimido[2,1-c][1,4]oxazepine-2-carboxamide, N-[[4-fluoro-2-[(methylamino)carbonyl]phenyl]methyl]-4,7,8,10-tetrahydro-3-hydroxy-10,10-dimethyl-4-oxo-]", "IC50": "2 to 100"}, {"smiles": "CCC1(CC)OCCn2c1nc(C(=O)NCc1ccc(F)cc1-n1cncn1)c(O)c2=O", "note": "[Example 119, Pyrimido[2,1-c][1,4]oxazine-2-carboxamide, 9,9-diethyl-N-[[4-fluoro-2-(1H-1,2,4-triazol-1-yl)phenyl]methyl]-4,6,7,9-tetrahydro-3-hydroxy-4-oxo-]", "IC50": "2 to 100"}, {"smiles": "CCC1(CC)OCCn2c1nc(C(=O)NCc1ccc(F)cc1C(=O)NC)c(O)c2=O", "note": "[Example 120, Pyrimido[2,1-c][1,4]oxazine-2-carboxamide, 9,9-diethyl-N-[[4-fluoro-2-[(methylamino)carbonyl]phenyl]methyl]-4,6,7,9-tetrahydro-3-hydroxy-4-oxo-]", "IC50": "2 to 100"}, {"smiles": "CC1(C)OCCn2c1nc(C(=O)NCc1ccc(F)cc1N1CCCCC1=O)c(O)c2=O", "note": "[Example 121, Pyrimido[2,1-c][1,4]oxazine-2-carboxamide, N-[[4-fluoro-2-(2-oxo-1-piperidinyl)phenyl]methyl]-4,6,7,9-tetrahydro-3-hydroxy-9,9-dimethyl-4-oxo-]", "IC50": "2 to 100"}, {"smiles": "CC1(C)OCCn2c1nc(C(=O)NCc1ccccc1N1CCOC1=O)c(O)c2=O", "note": "[Example 122, Pyrimido[2,1-c][1,4]oxazine-2-carboxamide, 4,6,7,9-tetrahydro-3-hydroxy-9,9-dimethyl-4-oxo-N-[[2-(2-oxo-3-oxazolidinyl)phenyl]methyl]-]", "IC50": "2 to 100"}, {"smiles": "CC1(C)OCCn2c1nc(C(=O)NCc1ccccc1N1CCC1=O)c(O)c2=O", "note": "[Example 123, Pyrimido[2,1-c][1, 4]oxazine-2-carboxamide, 4,6,7,9-tetrahydro-3-hydroxy-9,9-dimethyl-4-oxo-N-[[2-(2-oxo-1-azetidinyl)phenyl]methyl]-]", "IC50": "2 to 100"}, {"smiles": "CC1(C)OCCn2c1nc(C(=O)NCc1ccc(F)cc1N1CCCC1=O)c(O)c2=O", "note": "[Example 124, Pyrimido[2,1-c][1,4]oxazine-2-carboxamide, N-[[4-fluoro-2-(2-oxo-1-pyrrolidinyl)phenyl]methyl]-4,6,7,9-tetrahydro-3-hydroxy-9,9-dimethyl-4-oxo]", "IC50": "2 to 100"}, {"smiles": "CC1(C)OCCn2c1nc(C(=O)NCc1ccc(F)cc1N1CCCCCC1=O)c(O)c2=O", "note": "[Example 125, Pyrimido[2,1-c][1,4]oxazine-2-carboxamide, N-[[4-fluoro-2-(hexahydro-2-oxo-1H-azepin-1-yl)phenyl]methyl]-4,6,7,9-tetrahydro-3-hydroxy-9,9-dimethyl-4-oxo-]", "IC50": "2 to 100"}, {"smiles": "CC1(C)OCCn2c1nc(C(=O)NCc1ccc(F)cc1N1CCC1=O)c(O)c2=O", "note": "[Example 126, N-(4-Fluoro-2-(2-oxoazetidin-1-yl)benzyl)-3-hydroxy-9,9-dimethyl-4-oxo-4,6,7,9-tetrahydropyrimido[2,1-c][1,4]oxazine-2-carboxamide]", "IC50": "2 to 100"}]}]}
